The results in this text go back to PMC12186255, “Discovery and Characterization of Small Molecule Inhibitors Targeting Exonuclease 1 for Homologous Recombination-Deficient Cancer Therapy” (ACS Chemical Biology, 2025).

One experiment deals with T1, EXO1 K85A (Homo sapiens, UniProt Q9UQ84, K85A).
T1 construct: The N-terminal domain of human EXO1 (hEXO1) (residues 1–345) was cloned into the pET28b vector; made in house; host or cells: E. coli BL21(DE3) and Rosetta 2(DE3)
The experiment is described as follows: In vitro exonuclease activity of mutant with inhibitors. Conditions: EXO1 25 nM, DNA substrate 250 nM; C200 0-5 μM, F684 10-40 μM. The experiment is classed as biochemical. The procedure:
(§1) Simultaneously, we tested the effect of each point mutation on the in vitro exonuclease activity. Most mutations in site 1 result in some loss of enzymatic activity compared to WT EXO1 (Figure S13; WT:Figure S13a), particularly K85A and D225A (Figure S13b,f). […] However, at concentrations of 20 and 40 μM, the mutants (K85A and R92A) behaved more like WT (Figure b).
(§2) In both panels a and b, DMSO without inhibitors was used as a control, and its relative binding activity was set equal to 1.0. The EXO1 enzyme concentration was 25 nM, and the DNA substrate concentration was 250 nM. The values shown are the mean ± S.D. of three independent experiments.
(§3) The N-terminal domain of human EXO1 (hEXO1) (residues 1–345) was cloned into the pET28b vector. The following mutations were introduced via site-directed mutagenesis based on the findings of molecular docking analysis: K85A, E89A, R92A, I125A, D225A, K292A, and K294A (oligonucleotide primers listed in Table S1) following the established protocol.

The next experiment has as its target T2, EXO1 R92A (Homo sapiens, UniProt Q9UQ84, R92A).
T2 construct: The N-terminal domain of human EXO1 (hEXO1) (residues 1–345) was cloned into the pET28b vector; made in house; host or cells: E. coli BL21(DE3) and Rosetta 2(DE3)
Described as above. The experiment is classed as biochemical. As to conditions: EXO1 25 nM, DNA substrate 250 nM; C200 0-5 μM, F684 10-40 μM. The protocol: as §1, §2, §3

For a further experiment, the target named is T3, EXO1 (Homo sapiens, UniProt Q9UQ84).
T3 construct: made in house
T3 sequence (Q9UQ84 1-846): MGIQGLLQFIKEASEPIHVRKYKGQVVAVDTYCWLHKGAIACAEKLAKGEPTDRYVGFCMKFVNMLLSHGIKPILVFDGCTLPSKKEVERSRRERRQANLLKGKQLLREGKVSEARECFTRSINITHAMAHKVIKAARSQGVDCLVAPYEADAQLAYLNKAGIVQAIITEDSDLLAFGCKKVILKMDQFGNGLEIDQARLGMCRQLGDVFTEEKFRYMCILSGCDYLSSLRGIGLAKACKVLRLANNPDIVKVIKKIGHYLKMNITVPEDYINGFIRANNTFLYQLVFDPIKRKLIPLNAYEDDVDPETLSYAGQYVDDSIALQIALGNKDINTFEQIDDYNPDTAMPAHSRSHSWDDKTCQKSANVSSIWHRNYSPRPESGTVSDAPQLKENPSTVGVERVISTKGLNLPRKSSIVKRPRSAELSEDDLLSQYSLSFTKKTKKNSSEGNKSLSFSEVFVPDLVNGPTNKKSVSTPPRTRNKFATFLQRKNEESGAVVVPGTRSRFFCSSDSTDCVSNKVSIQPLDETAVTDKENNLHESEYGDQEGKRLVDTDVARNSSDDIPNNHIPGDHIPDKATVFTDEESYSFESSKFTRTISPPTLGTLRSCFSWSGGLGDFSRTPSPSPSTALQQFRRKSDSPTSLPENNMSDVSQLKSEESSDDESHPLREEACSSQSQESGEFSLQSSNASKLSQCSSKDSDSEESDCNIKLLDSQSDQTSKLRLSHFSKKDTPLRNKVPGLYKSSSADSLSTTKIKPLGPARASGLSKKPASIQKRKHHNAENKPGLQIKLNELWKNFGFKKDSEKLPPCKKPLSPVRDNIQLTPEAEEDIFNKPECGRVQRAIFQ
The experiment is described as follows: Inhibitor kinetics by FRET-based EXO1 assay (Michaelis-Menten, Lineweaver-Burk). As to conditions: for V max: Michaelis–Menten plot; for mechanism of EXO1 inhibition: from Michaelis–Menten and Lineweaver–Burk plots. The class given is biochemical. The text has this:
We then calculated the initial velocity of enzyme activity by calculating the rate within the linear region of the time-dependent RFU.
The initial velocity of enzyme activity was obtained by calculating the rate of the linear region of the time-dependent RFU.

In the next experiment the test system is MCF7. The experiment is described as follows: Cell line drug profiling, CellTiter Glo. The experiment is classed as cell-based. Conditions: Homo sapiens; MCF7, Breast, 72 h. The procedure: (§4) We tested the cytotoxicity of representative compounds from the seven EXO1i scaffolds against a subset of the NCI-60 cell line panel along with three additional pancreatic cell lines (FG, AsPC1, and CaPan2). In general, cells were seeded in 384-well tissue culture-treated plates overnight and treated with various concentrations of each hit compound (a serial 3-fold dilution from 50 μM for all tested hits). Each concentration was performed in duplicate. Cell viability was then measured by CellTiter Glo (Promega) after 72 h of treatment.

Another experiment relates to HS 578T. Kind of experiment: Cell line drug profiling, CellTiter Glo. The experiment is classed as cell-based. Conditions: Homo sapiens, Breast, 72 h. The protocol:
as §4
(In ATP-based viability assays light output follows the ATP content of the culture.)

The next experiment relates to UO-31. The experiment is described as follows: Cell line drug profiling, CellTiter Glo. The class given is cell-based. As to conditions: Homo sapiens; UO-31, Kidney, 72 h. The procedure: as §4
The next experiment deals with OVCAR-3. The experiment is described as follows: Cell line drug profiling, CellTiter Glo. The experiment is classed as cell-based. As to conditions: Homo sapiens; OVCAR-3, Ovarian, 72 h. The protocol: as §4
The test system of the next experiment is SK-MEL-28. Kind of experiment: Cell line drug profiling, CellTiter Glo. The experiment is classed as cell-based. As to conditions: Homo sapiens; SK-MEL-28, Melanoma, 72 h. The protocol: as §4
The test system of another experiment is AsPC1. Kind of experiment: Cell line drug profiling, CellTiter Glo. The experiment is classed as cell-based. As to conditions: Homo sapiens; AsPC1, Pancreatic, 72 h. The protocol: as §4
In a further experiment the test system is MCF7 (B3). Kind of experiment: Cell line drug profiling, CellTiter Glo. The class given is cell-based. As to conditions: Homo sapiens, Breast, 72 h. The procedure: as §4
Another experiment has as its system SF-268. Kind of experiment: Cell line drug profiling, CellTiter Glo. The class given is cell-based. As to conditions: Homo sapiens; SF-268, Central Nervous System, 72 h. The protocol:
as §4

For a further experiment, the system named is FG. The experiment is described as follows: Cell line drug profiling, CellTiter Glo. The experiment is classed as cell-based. As to conditions: Homo sapiens, Pancreatic, 72 h. The procedure: as §4
The test system of another experiment is ACHN. The experiment is described as follows: Cell line drug profiling, CellTiter Glo. The class given is cell-based. Conditions: Homo sapiens, Kidney, 72 h. The protocol:
as §4

For another experiment, the system named is CCRF-CEM. Kind of experiment: Cell line drug profiling, CellTiter Glo. The experiment is classed as cell-based. Conditions: Homo sapiens, Leukemia, 72 h. The procedure:
as §4

The next experiment deals with HL-60(TB). The experiment is described as follows: Cell line drug profiling, CellTiter Glo. The class given is cell-based. As to conditions: Homo sapiens, Leukemia, 72 h. The procedure: as §4
A further experiment relates to BT549. Kind of experiment: Cell line drug profiling, CellTiter Glo. The experiment is classed as cell-based. Conditions: Homo sapiens, BT-549; BT549, Breast, 72 h. The protocol:
as §4

The test system of the next experiment is MDA-MB-231. The experiment is described as follows: Cell line drug profiling, CellTiter Glo. The experiment is classed as cell-based. As to conditions: Homo sapiens; MDA-MB-231, Breast, 72 h. The protocol:
as §4

In the next experiment the test system is CaPan2. Kind of experiment: Cell line drug profiling, CellTiter Glo. The experiment is classed as cell-based. As to conditions: Homo sapiens, Capan-2; CaPan2, Pancreatic, 72 h. The protocol: as §4

Each structure is given as a SMILES string. Entries after “also recorded” stand apart in the source; their conditions may differ.

T2 sequence (Q9UQ84 1-345 R92A): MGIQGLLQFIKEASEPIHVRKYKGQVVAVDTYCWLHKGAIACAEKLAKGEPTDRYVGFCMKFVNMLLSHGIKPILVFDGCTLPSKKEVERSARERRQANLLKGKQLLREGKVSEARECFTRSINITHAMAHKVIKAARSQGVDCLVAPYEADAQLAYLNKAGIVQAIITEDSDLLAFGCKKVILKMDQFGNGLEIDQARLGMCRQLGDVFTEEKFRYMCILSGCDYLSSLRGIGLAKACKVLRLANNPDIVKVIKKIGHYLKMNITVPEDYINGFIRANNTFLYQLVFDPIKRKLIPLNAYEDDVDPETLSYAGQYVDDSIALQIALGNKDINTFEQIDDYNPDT
T1 sequence (Q9UQ84 1-345 K85A): as the sequence (Q9UQ84 1-345 R92A) above, with K85A, A92R counted along it

For the compound `COC(=O)c1nc(-c2ccc(OC)cc2)nc(O)c1O` [C200], the “inhibitory activity against EXO1 K85A mutant vs WT” value against EXO1 K85A was “did not have a significant”. For the same compound, at EXO1 R92A, the “inhibitory activity against EXO1 R92A mutant vs WT” value is “partially lost its inhibitory effect; also recorded: abolished”. For the same compound, the V max on EXO1 (2 μM C200) is given as 415.5 min^–1. Besides, the “mechanism of EXO1 inhibition” value on EXO1 is “uncompetitive mechanism”. Also, the IC50 is 2 µM at EXO1 (kinetic assays, read-out: IC50 of each compound, used as fixed inhibitor concentration); > 50 µM in the experiment on MCF7; > 50 µM with HS 578T; > 50 µM in the experiment with UO-31; > 50 µM in the experiment with OVCAR-3; > 50 µM in the experiment on SK-MEL-28. In addition, the IC50 is > 50 µM in the experiment with AsPC1; > 50 µM with MCF7 (B3); > 50 µM in the experiment with SF-268; > 50 µM in the experiment with FG; > 50 µM in the experiment with ACHN; 27.4 µM in the experiment on CCRF-CEM. The IC50 with HL-60(TB), in the experiment on BT549, in the experiment on MDA-MB-231 and in the experiment with CaPan2 was > 50 µM throughout.

Consider `Cc1cccc(N2CCN(c3ccc(NS(=O)(=O)c4ccccc4)c(C(=O)O)c3)CC2)c1C` [F684], for which, at EXO1 K85A, the “inhibitory activity against EXO1 K85A mutant vs WT” value is recorded as “partially lost its inhibitory effects; also recorded: abolished”. At EXO1 R92A, the “inhibitory activity against EXO1 R92A mutant vs WT” value is reported as “partially lost its inhibitory effects; also recorded: abolished”. This compound also displayed a V max on EXO1 ([…] μM F684) of 114.1 min^–1. The “mechanism of EXO1 inhibition” value on EXO1 is “uncompetitive mechanism”. Also, the IC50 with MCF7 was 20.1 µM; in the experiment on HS 578T, 18.2 µM; in the experiment on UO-31 it was 20.6 µM; with OVCAR-3, 10.9 µM; in the experiment with SK-MEL-28, 38 µM; with AsPC1, > 50 µM. Besides, the IC50 in the experiment on MCF7 (B3) came out at 23.6 µM; in the experiment with SF-268, 38.6 µM; in the experiment on FG it was 27.5 µM; in the experiment on ACHN it was 28.9 µM; with CCRF-CEM it was 14.6 µM; in the experiment on HL-60(TB), 20.1 µM. In addition, the IC50 in the experiment on BT549 amounted to 12 µM; with MDA-MB-231, 28.6 µM; in the experiment with CaPan2, 48.1 µM.
